Biological target: F508delCFTR (Homo sapiens, UniProt P13569, DEL508-508)
Assay: Cell Surface Expression-Horse Radish Peroxidase (CSE-HRP) assay
Type: cell-based
Parameters: expressed in transfected cells; host or cells: CFBE41o- human lung derived epithelial cell line, doxycycline-inducible
Conditions: CFBE4lo-F508delCFTR-HRP cells; for EC50: 18-24 hours at 33° C., 8-point curve, highest concentration 20 μM, luminescence readout; for Emax / Maximum % activity (%): maximum % activity at any tested concentration, normalized to on-plate positive control (3 μM Example 1)
In short: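 Following 18-24 h compound exposure at 33° C. Expression was doxycycline-induced beforehand. % activity versus DMSO and a 3 μM corrector control gave maximum activity and EC50 from a variable-Hill sigmoidal fit.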

Chain of F508delCFTR (P13569 with tags, fused parts or gaps DEL508-508): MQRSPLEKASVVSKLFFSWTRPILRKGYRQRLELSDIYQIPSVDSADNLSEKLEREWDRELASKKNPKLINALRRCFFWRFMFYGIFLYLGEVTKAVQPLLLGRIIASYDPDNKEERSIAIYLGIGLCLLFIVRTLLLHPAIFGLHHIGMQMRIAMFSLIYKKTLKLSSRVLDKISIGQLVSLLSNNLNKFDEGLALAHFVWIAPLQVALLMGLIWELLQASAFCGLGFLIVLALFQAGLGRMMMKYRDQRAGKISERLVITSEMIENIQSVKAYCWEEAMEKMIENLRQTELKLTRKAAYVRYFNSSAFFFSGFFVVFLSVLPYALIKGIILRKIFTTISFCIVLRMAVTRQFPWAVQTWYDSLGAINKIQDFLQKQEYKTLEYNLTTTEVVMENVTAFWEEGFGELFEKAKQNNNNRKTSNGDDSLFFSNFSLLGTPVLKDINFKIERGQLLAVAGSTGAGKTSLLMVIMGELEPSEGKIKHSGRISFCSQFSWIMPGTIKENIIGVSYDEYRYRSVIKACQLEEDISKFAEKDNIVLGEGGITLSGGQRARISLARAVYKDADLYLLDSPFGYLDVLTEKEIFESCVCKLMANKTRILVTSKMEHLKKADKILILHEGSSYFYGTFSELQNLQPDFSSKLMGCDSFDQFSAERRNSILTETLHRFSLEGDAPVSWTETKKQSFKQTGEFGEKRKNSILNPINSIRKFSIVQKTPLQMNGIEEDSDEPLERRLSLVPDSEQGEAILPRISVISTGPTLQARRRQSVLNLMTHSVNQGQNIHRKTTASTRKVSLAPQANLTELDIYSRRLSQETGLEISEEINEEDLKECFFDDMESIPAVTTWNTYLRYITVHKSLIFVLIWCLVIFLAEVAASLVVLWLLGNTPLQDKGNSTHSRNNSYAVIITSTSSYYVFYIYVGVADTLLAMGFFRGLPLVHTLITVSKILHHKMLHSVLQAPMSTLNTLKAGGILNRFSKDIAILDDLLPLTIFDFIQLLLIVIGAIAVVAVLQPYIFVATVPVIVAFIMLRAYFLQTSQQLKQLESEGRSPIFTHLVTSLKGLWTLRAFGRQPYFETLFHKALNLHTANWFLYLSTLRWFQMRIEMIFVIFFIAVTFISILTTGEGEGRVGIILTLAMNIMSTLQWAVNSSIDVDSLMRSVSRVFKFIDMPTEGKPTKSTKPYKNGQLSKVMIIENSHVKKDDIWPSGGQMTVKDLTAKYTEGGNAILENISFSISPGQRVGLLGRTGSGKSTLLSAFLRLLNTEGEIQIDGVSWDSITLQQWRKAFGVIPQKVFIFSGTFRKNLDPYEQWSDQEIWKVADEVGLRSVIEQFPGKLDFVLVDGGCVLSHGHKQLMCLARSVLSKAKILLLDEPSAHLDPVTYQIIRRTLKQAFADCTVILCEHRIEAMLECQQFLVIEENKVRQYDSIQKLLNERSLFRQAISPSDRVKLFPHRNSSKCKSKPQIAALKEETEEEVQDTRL

EC50 [µM]	Emax [%]	Maximum % activity (%)	Compound
4.4	29	–	COc1ccc2c(c1)O[C@@H](C(=O)NC1(C(F)(F)F)COC1)C[C@@H]2NC(=O)C1(c2ccc3c(c2)OC(F)(F)O3)CC1 (racemic) [Example 192, rac-(2R,4S)-4-({[1-(2,2-difluoro-1,3-benzodioxol-5-yl)cyclopropyl]carbonyl}amino)-7-methoxy-N-[3-(trifluoromethyl)oxetan-3-yl]-3,4-dihydro-2H-chromene-2-carboxamide]
0.47	68	–	COc1ccc2c(c1)O[C@@H](C(=O)N1CCC(F)(F)CC1)C[C@@H]2NC(=O)C1(c2ccc3c(c2)OC(F)(F)O3)CC1 (racemic) [Example 193, rac-1-(2,2-difluoro-1,3-benzodioxol-5-yl)-N-{(2R,4S)-2-[(4,4-difluoropiperidin-1-yl)carbonyl]-7-methoxy-3,4-dihydro-2H-chromen-4-yl}cyclopropanecarboxamide]
0.88	68	–	COc1ccc2c(c1)O[C@@H](C(=O)N1CCCOCC1)C[C@@H]2NC(=O)C1(c2ccc3c(c2)OC(F)(F)O3)CC1 (racemic) [Example 194, rac-1-(2,2-difluoro-1,3-benzodioxol-5-yl)-N-[(2R,4S)-7-methoxy-2-(1,4-oxazepan-4-ylcarbonyl)-3,4-dihydro-2H-chromen-4-yl]cyclopropanecarboxamide]
7.53	37	–	COc1ccc2c(c1)O[C@@H](C(=O)N(C)C1COC1)C[C@@H]2NC(=O)C1(c2ccc3c(c2)OC(F)(F)O3)CC1 (racemic) [Example 195, rac-(2R,4S)-4-({[1-(2,2-difluoro-1,3-benzodioxol-5-yl)cyclopropyl]carbonyl}amino)-7-methoxy-N-methyl-N-(oxetan-3-yl)-3,4-dihydro-2H-chromene-2-carboxamide]
1.24	67	–	COc1ccc2c(c1)O[C@@H](C(=O)N1CCOCC1)C[C@@H]2NC(=O)C1(c2ccc3c(c2)OC(F)(F)O3)CC1 (racemic) [Example 196, rac-1-(2,2-difluoro-1,3-benzodioxol-5-yl)-N-[(2R,4S)-7-methoxy-2-(morpholin-4-ylcarbonyl)-3,4-dihydro-2H-chromen-4-yl]cyclopropanecarboxamide]
2.1	73	–	COc1ccc2c(c1)O[C@@H](C(=O)NC(CO)c1ccccc1OC)C[C@@H]2NC(=O)C1(c2ccc3c(c2)OC(F)(F)O3)CC1 (mixture of isomers) [Example 197, rac-(2R,4S)-4-({[1-(2,2-difluoro-1,3-benzodioxol-5-yl)cyclopropyl]carbonyl}amino)-N-[2-hydroxy-1-(2-methoxyphenyl)ethyl]-7-methoxy-3,4-dihydro-2H-chromene-2-carboxamide]
1.71	67	–	COc1ccc2c(c1)O[C@@H](C(=O)NCCc1cccc(O)c1)C[C@@H]2NC(=O)C1(c2ccc3c(c2)OC(F)(F)O3)CC1 (racemic) [Example 198, rac-(2R,4S)-4-({[1-(2,2-difluoro-1,3-benzodioxol-5-yl)cyclopropyl]carbonyl}amino)-N-[2-(3-hydroxyphenyl)ethyl]-7-methoxy-3,4-dihydro-2H-chromene-2-carboxamide]
6.89	27	–	COc1ccc2c(c1)O[C@@H](C(=O)NC(CO)CO)C[C@@H]2NC(=O)C1(c2ccc3c(c2)OC(F)(F)O3)CC1 (racemic) [Example 199, rac-(2R,4S)-4-({[1-(2,2-difluoro-1,3-benzodioxol-5-yl)cyclopropyl]carbonyl}amino)-N-(1,3-dihydroxypropan-2-yl)-7-methoxy-3,4-dihydro-2H-chromene-2-carboxamide]
2.35	61	–	COc1ccc2c(c1)O[C@@H](C(=O)NC1c3ccccc3CC1O)C[C@@H]2NC(=O)C1(c2ccc3c(c2)OC(F)(F)O3)CC1 (mixture of isomers) [Example 200, rac-(2R,4S)-4-({[1-(2,2-difluoro-1,3-benzodioxol-5-yl)cyclopropyl]carbonyl}amino)-N-(2-hydroxy-2,3-dihydro-1H-inden-1-yl)-7-methoxy-3,4-dihydro-2H-chromene-2-carboxamide]
7.92	35	–	COc1ccc2c(c1)O[C@@H](C(=O)N1CCC(C(=O)O)C1)C[C@@H]2NC(=O)C1(c2ccc3c(c2)OC(F)(F)O3)CC1 (mixture of isomers) [Example 201, rac-1-{[(2R,4S)-4-({[1-(2,2-difluoro-1,3-benzodioxol-5-yl)cyclopropyl]carbonyl}amino)-7-methoxy-3,4-dihydro-2H-chromen-2-yl]carbonyl}pyrrolidine-3-carboxylic acid]
3.05	54	–	CCOC(=O)c1csc([C@H]2C[C@H](NC(=O)C3(c4ccc5c(c4)OC(F)(F)O5)CC3)c3ccccc3O2)n1 (relative stereo) [Example 141, ethyl rel-2-[(2R,4S)-4-({[1-(2,2-difluoro-1,3-benzodioxol-5-yl)cyclopropyl]carbonyl}amino)-3,4-dihydro-2H-chromen-2-yl]-1,3-thiazole-4-carboxylate]
> 20	11	–	O=C(O)c1csc([C@H]2C[C@H](NC(=O)C3(c4ccc5c(c4)OC(F)(F)O5)CC3)c3ccccc3O2)n1 (relative stereo) [Example 144, rel-2-[(2R,4S)-4-({[1-(2,2-difluoro-1,3-benzodioxol-5-yl)cyclopropyl]carbonyl}amino)-3,4-dihydro-2H-chromen-2-yl]-1,3-thiazole-4-carboxylic acid]
0.09	123	–	COc1ccc2c(c1)O[C@@H](c1ccc(C(=O)O)cn1)C[C@H]2NC(=O)C1(c2ccc3c(c2)OC(F)(F)O3)CC1 (relative stereo) [Example 165, rel-6-[(2R,4R)-4-({[1-(2,2-difluoro-1,3-benzodioxol-5-yl)cyclopropyl]carbonyl}amino)-7-methoxy-3,4-dihydro-2H-chromen-2-yl]pyridine-3-carboxylic acid]
7.02	–	25	O=C(O)c1cnc(C2CC(NC(=O)C3(c4ccc5c(c4)OC(F)(F)O5)CC3)c3ccccc3O2)s1 (single isomer, unassigned) [Example 133]
3.36	–	90	O=C(O)c1cnc(C2CC(NC(=O)C3(c4ccc5c(c4)OC(F)(F)O5)CC3)c3ccccc3O2)s1 (single isomer, unassigned) [Example 136]
8.37	63	–	CCOC(=O)c1cccc([C@@H]2C[C@H](NC(=O)C3(c4ccc5c(c4)OC(F)(F)O5)CC3)c3ccncc3O2)c1 (stereo in doubt) [Example 24, ethyl rel-3-[(2S,4S)-4-({[1-(2,2-difluoro-1,3-benzodioxol-5-yl)cyclopropyl]carbonyl}amino)-3,4-dihydro-2H-pyrano[2,3-c]pyridin-2-yl]benzoate]
3.91	41	–	CCOC(=O)c1cccc([C@H]2C[C@@H](NC(=O)C3(c4ccc5c(c4)OC(F)(F)O5)CC3)c3ccncc3O2)c1 (stereo in doubt) [Example 25, ethyl rel-3-[(2R,4R)-4-({[1-(2,2-difluoro-1,3-benzodioxol-5-yl)cyclopropyl]carbonyl}amino)-3,4-dihydro-2H-pyrano[2,3-c]pyridin-2-yl]benzoate]
3.44	86	–	CCOC(=O)c1cnc([C@@H]2C[C@H](NC(=O)C3(c4ccc5c(c4)OC(F)(F)O5)CC3)c3ccccc3O2)s1 (stereo in doubt) [Example 132, ethyl rel-2-[(2S,4S)-4-({[1-(2,2-difluoro-1,3-benzodioxol-5-yl)cyclopropyl]carbonyl}amino)-3,4-dihydro-2H-chromen-2-yl]-1,3-thiazole-5-carboxylate]
1.51	97	–	CCOC(=O)c1cnc([C@H]2C[C@@H](NC(=O)C3(c4ccc5c(c4)OC(F)(F)O5)CC3)c3ccccc3O2)s1 (stereo in doubt) [Example 135, ethyl rel-2-[(2R,4R)-4-({[1-(2,2-difluoro-1,3-benzodioxol-5-yl)cyclopropyl]carbonyl}amino)-3,4-dihydro-2H-chromen-2-yl]-1,3-thiazole-5-carboxylate]
2.28	53	–	CCOC(=O)c1csc([C@@H]2C[C@H](NC(=O)C3(c4ccc5c(c4)OC(F)(F)O5)CC3)c3ccccc3O2)n1 (stereo in doubt) [Example 140, ethyl rel-2-[(2S,4S)-4-({[1-(2,2-difluoro-1,3-benzodioxol-5-yl)cyclopropyl]carbonyl}amino)-3,4-dihydro-2H-chromen-2-yl]-1,3-thiazole-4-carboxylate]
1.18	87	–	CCOC(=O)c1csc([C@H]2C[C@@H](NC(=O)C3(c4ccc5c(c4)OC(F)(F)O5)CC3)c3ccccc3O2)n1 (stereo in doubt) [Example 142, ethyl rel-2-[(2R,4R)-4-({[1-(2,2-difluoro-1,3-benzodioxol-5-yl)cyclopropyl]carbonyl}amino)-3,4-dihydro-2H-chromen-2-yl]-1,3-thiazole-4-carboxylate]
8.5	27	–	O=C(O)c1csc([C@@H]2C[C@H](NC(=O)C3(c4ccc5c(c4)OC(F)(F)O5)CC3)c3ccccc3O2)n1 (stereo in doubt) [Example 143, rel-2-[(2S,4S)-4-({[1-(2,2-difluoro-1,3-benzodioxol-5-yl)cyclopropyl]carbonyl}amino)-3,4-dihydro-2H-chromen-2-yl]-1,3-thiazole-4-carboxylic acid]
2.45	96	–	O=C(O)c1csc([C@H]2C[C@@H](NC(=O)C3(c4ccc5c(c4)OC(F)(F)O5)CC3)c3ccccc3O2)n1 (stereo in doubt) [Example 145, rel-2-[(2R,4R)-4-({[1-(2,2-difluoro-1,3-benzodioxol-5-yl)cyclopropyl]carbonyl}amino)-3,4-dihydro-2H-chromen-2-yl]-1,3-thiazole-4-carboxylic acid]

From US9642831B2, “Substituted chromanes and method of use” (AbbVie S.á.r.l., priority 2014, dated 2017)
